{"source": "patent USRE46511E1", "about": "“Fused pyrimidine derivatives for inhibition of tyrosine kinase activity” (HANMI SCIENCE CO., LTD., priority 2010, dated 2017)", "key": {"A431 (EGFR WT)": {"test_system": "A431 (EGFR WT)", "assay": "Inhibition test for growth of cancer cell expressing EGFR (SRB), A431;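 also: cells in 96-well plates exposed to tenfold serial dilutions from 100 µM down to 10^−6 µM, DMSO under 1%, SRB staining read as absorbance at 540 nm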", "assay_type": "cell-based", "settings": "Homo sapiens, A-431; A431 cells, 72 hours, SRB; read-out: GI50 A431 EGFR WT"}, "ITK": {"target": "T1, ITK (Homo sapiens, UniProt Q08881)", "T1 construct": "purchased Invitrogen", "T1 sequence (Q08881 1-620)": "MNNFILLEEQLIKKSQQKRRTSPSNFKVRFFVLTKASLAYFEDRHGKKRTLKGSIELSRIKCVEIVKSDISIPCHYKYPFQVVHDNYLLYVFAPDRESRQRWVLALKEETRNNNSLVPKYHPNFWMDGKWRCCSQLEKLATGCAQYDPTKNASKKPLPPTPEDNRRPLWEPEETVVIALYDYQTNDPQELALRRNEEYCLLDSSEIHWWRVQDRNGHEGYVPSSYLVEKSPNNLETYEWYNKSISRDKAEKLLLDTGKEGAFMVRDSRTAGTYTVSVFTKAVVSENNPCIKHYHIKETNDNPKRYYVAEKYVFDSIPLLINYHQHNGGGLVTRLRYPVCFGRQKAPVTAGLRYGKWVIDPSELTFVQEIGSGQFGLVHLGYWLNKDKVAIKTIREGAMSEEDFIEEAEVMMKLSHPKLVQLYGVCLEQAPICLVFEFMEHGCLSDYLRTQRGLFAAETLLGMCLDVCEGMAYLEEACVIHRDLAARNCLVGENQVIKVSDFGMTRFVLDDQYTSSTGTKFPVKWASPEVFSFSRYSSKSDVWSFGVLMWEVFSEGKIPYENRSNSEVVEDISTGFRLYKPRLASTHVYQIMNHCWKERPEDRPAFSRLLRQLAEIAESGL", "assay": "z-lyte kinase assay, ITK", "assay_type": "biochemical"}, "RLK": {"target": "T2, RLK (Homo sapiens, UniProt P42681)", "T2 construct": "purchased Invitrogen", "T2 sequence (P42681 1-527)": "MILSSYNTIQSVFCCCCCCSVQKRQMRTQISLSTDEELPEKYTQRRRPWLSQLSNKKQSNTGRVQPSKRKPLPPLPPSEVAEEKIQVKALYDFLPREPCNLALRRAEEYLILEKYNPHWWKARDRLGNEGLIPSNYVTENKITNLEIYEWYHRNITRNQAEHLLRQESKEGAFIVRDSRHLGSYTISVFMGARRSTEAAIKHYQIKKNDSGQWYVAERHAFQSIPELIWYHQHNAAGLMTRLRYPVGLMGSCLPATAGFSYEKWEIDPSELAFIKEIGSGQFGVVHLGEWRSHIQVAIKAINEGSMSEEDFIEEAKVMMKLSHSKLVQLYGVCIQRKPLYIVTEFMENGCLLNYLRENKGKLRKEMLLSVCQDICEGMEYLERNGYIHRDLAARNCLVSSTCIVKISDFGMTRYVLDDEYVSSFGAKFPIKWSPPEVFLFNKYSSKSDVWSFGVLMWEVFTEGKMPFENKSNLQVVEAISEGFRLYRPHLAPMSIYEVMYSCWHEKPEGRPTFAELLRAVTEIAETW", "assay": "z-lyte kinase assay, RLK", "assay_type": "biochemical"}}, "data": [{"smiles": "C=CC(=O)Nc1cccc(Oc2nc(Nc3ccc(N4CCN(C)CC4)cc3)nc3ccsc23)c1", "note": "[Example 1, N-(3-(2-(4-(4-methylpiperazin-1-yl)phenylamino)thieno[3,2-d]pyrimidine-4-yloxy)phenyl)acrylamide]", "values": [{"measurement": "GI50", "setting": "A431 (EGFR WT)", "value": "> 1000", "unit": "nM"}, {"measurement": "IC50", "setting": "ITK", "value": "50 to 100", "unit": "nM"}, {"measurement": "IC50", "setting": "RLK", "value": "≤ 50", "unit": "nM"}]}]}
